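Abbreviation: GI50, concentration required for 50% inhibition of growth. At the TGI there is no net growth.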
Legend:
Assay in all cases: NCI-60 cell line screen, 384-well format
KM12 colon = system: KM12 colon
MOLT-4 leukemia = system: MOLT-4 leukemia
MDA-MB-435 melanoma = system: MDA-MB-435 melanoma
OVCAR-4 ovarian = system: OVCAR-4 ovarian
NCI-H460 NSCLC = system: NCI-H460 NSCLC
OVCAR-5 ovarian = system: OVCAR-5 ovarian
K-562 leukemia = system: K-562 leukemia
EKVX NSCLC = system: EKVX NSCLC
A498 renal = system: A498 renal
SK-MEL-2 melanoma = system: SK-MEL-2 melanoma
M14 melanoma = system: M14 melanoma
COLO 205 colon = system: COLO 205 colon
NCI-H23 lung = system: NCI-H23 lung
MDA-MB-468 breast = system: MDA-MB-468 breast
A549 NSCLC = system: A549 NSCLC
HCT-116 colon = system: HCT-116 colon
NCI-H522 lung = system: NCI-H522 lung
HOP-62 NSCLC = system: HOP-62 NSCLC
UACC-257 melanoma = system: UACC-257 melanoma
MALME-3M melanoma = system: MALME-3M melanoma
NCI/ADR-RES ovarian = system: NCI/ADR-RES ovarian
OVCAR-3 ovarian = system: OVCAR-3 ovarian
SK-MEL-5 melanoma = system: SK-MEL-5 melanoma
SK-OV-3 ovarian = system: SK-OV-3 ovarian
UACC-62 melanoma = system: UACC-62 melanoma
NCI-H226 lung = system: NCI-H226 lung
RPMI-8226 leukemia = system: RPMI-8226 leukemia
DU-145 prostate = system: DU-145 prostate
SF-295 CNS = system: SF-295 CNS

CS(=O)(=O)c1ccc(-c2cnc(N)c(C(=O)Nc3ccccc3)n2)cc1
TGI (KM12 colon): > 100 µM | GI50 (MOLT-4 leukemia): 1.46 µM | TGI (MOLT-4 leukemia): 2.81 µM | GI50 (MDA-MB-435 melanoma): > 100 µM | TGI (MDA-MB-435 melanoma): > 100 µM | GI50 (OVCAR-4 ovarian): 11.9 µM | TGI (OVCAR-4 ovarian): 93 µM | GI50 (NCI-H460 NSCLC): 3.73 µM | TGI (NCI-H460 NSCLC): > 100 µM | GI50 (OVCAR-5 ovarian): 33.6 µM | TGI (OVCAR-5 ovarian): > 100 µM | GI50 (K-562 leukemia): 4.62 µM | TGI (K-562 leukemia): > 100 µM | GI50 (EKVX NSCLC): > 100 µM | TGI (EKVX NSCLC): > 100 µM | GI50 (A498 renal): 2.78 µM | TGI (A498 renal): 28.6 µM | GI50 (SK-MEL-2 melanoma): 5.35 µM | TGI (SK-MEL-2 melanoma): 13.2 µM | GI50 (M14 melanoma): 5.68 µM | TGI (M14 melanoma): > 100 µM | GI50 (COLO 205 colon): 29.5 µM | TGI (COLO 205 colon): > 100 µM | GI50 (NCI-H23 lung): 3.02 µM | TGI (NCI-H23 lung): 58.7 µM | GI50 (MDA-MB-468 breast): 2.6 µM | TGI (MDA-MB-468 breast): > 100 µM | GI50 (A549 NSCLC): 5.47 µM | TGI (A549 NSCLC): > 100 µM | GI50 (HCT-116 colon): > 100 µM | TGI (HCT-116 colon): > 100 µM | GI50 (NCI-H522 lung): 5.61 µM | TGI (NCI-H522 lung): > 100 µM | GI50 (HOP-62 NSCLC): 7.72 µM | TGI (HOP-62 NSCLC): > 100 µM | GI50 (UACC-257 melanoma): > 100 µM | TGI (UACC-257 melanoma): > 100 µM | GI50 (MALME-3M melanoma): 37.2 µM | TGI (MALME-3M melanoma): > 100 µM | GI50 (NCI/ADR-RES ovarian): > 100 µM | TGI (NCI/ADR-RES ovarian): > 100 µM | GI50 (OVCAR-3 ovarian): 12.1 µM | TGI (OVCAR-3 ovarian): > 100 µM | GI50 (SK-MEL-5 melanoma): 16.1 µM | TGI (SK-MEL-5 melanoma): > 100 µM | GI50 (SK-OV-3 ovarian): 3.68 µM | TGI (SK-OV-3 ovarian): 40 µM | GI50 (UACC-62 melanoma): 18.9 µM | TGI (UACC-62 melanoma): > 100 µM | GI50 (NCI-H226 lung): 46.8 µM | TGI (NCI-H226 lung): > 100 µM | GI50 (RPMI-8226 leukemia): 3.12 µM | TGI (RPMI-8226 leukemia): > 100 µM | GI50 (DU-145 prostate): 4.53 µM | TGI (DU-145 prostate): > 100 µM | GI50 (SF-295 CNS): 7.75 µM | TGI (SF-295 CNS): > 100 µM

Reference: PubChem BioAssay (NCI)
